In patent US5726041A, “Method for detecting a receptor-ligand complex using a cytochrome P450 reporter gene” (priority 1996, dated 1998):
Read-outs that look alike come from different tables or passages of the source.

Experiments:
[1] = tested on: PPARα/GR chimeric receptors
Procedure: (§1) Cells containing chimeric receptors for the rat, mouse and human PPARα ligand binding domain and rat GR DNA binding domain, as well as control cells, were examined for CH induction by clofibrate in the presence of LPS and spironolactone during clofibrate treatment. Incubations contained 5 ug/ml E. coli lipopolysaccharide and 10 uM spironolactone and were uncorrected for cell progression. Incubations were performed under the same conditions as described above. […] Cells were grown in a volume of 0.2 ml in the wells of a 96 well microtiter plate from an initial cell density of 5×10^5 cells per ml. […] The T194, T194/T144 and T194/EH#7 cell lines contain the mouse PPARα cDNA.

hPPAR = target: T1, hPPAR (Homo sapiens, UniProt Q07869); experiment: cell-based; conditions: 1.1 mM clofibrate vs basal
T1 sequence (Q07869 1-468): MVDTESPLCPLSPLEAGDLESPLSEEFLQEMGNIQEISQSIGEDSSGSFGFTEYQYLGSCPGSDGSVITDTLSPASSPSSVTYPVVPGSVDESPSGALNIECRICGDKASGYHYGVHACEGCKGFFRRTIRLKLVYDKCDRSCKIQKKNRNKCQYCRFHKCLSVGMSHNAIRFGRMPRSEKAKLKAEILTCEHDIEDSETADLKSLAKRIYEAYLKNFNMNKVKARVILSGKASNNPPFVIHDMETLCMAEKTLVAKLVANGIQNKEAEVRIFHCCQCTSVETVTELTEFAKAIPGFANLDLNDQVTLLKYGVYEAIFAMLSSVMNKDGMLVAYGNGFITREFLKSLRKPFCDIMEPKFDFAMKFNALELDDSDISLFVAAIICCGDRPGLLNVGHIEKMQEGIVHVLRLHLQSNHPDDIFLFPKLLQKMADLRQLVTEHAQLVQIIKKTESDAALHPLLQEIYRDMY
Procedure: (§2) MMTV-LTR1 is native, MMTV-LTR2 is minus CpG, MMTV-LTR3 is TATA only. Orientation is relative to reporter. CH activity is pmole per 10^6 cell min. Assuming the cells double every 24 hours, the maximium cell density is 2×10^6 cells per ml, using the log average cell concentration for each day of exposure. Earliest post fusion-values were used. […] It is merely a concentration in the monotonic portion of the dose response curve which has been used consistently in many experiments.

AHH-1 TK± cells = tested on: AHH-1 TK± cells
From the text: The reporter gene expression as reported in previous tables and figures is expressed as pmoles product/well in a 96 well microtiter plate as measured fluorometrically. […] A toxicity curve reflecting the relative number of cells/well present at the end of treatment was obtained as a function of chemical concentration. […] This suppression can be corrected for by determining the cell concentration in the well or by determining the suppression of CH activity in a cell line which constitutively expresses the reporter.

[2] = tested on: reporter construct without PPARα; experiment: CYP2A6 reporter in control cells without PPARα or chimeric receptor; conditions: for fold induction at 1100 µM: Homo sapiens, 1.1 mM clofibrate vs basal
Procedure: as §1, §2
The above-described assay conditions were used and the results were normalized to the respective basal expression levels.
(§3) In this test we used an initial cell concentration of 2 million cells/ml contained in 0.2 ml culture medium per well of a 96 well microtiter plate. Coumarin (0.05 mM) and clofibrate (concentration was an experimental variable) were added at the beginning of the incubation time. Cells were incubated for 3 days and the 7-hydroxycoumarin content in the wells was analyzed by fluorescence with excitation at 360 nm and emission at 460 nm using a Cytofluor 2350 (Millipore). […] The elevation in pH increases 7-hydroxycoumarin fluorescence by increasing the proportion of the fluorochrome which is ionized. Quantitation was achieved by comparison to a 7-hydroxycoumarin standard curve.

mouse PPARα = target: T2, mouse PPARα (Mus musculus, UniProt P23204); experiment: Native PPARα / PPRE CYP2A6 reporter, coumarin 7-hydroxylase induction; conditions: for fold induction at 1100 µM: 1.1 mM clofibrate vs basal; for maximal fold induction: read-out: Maximum Fold Induction, clofibrate-induced CYP2A6 activity
T2 sequence (P23204 1-468): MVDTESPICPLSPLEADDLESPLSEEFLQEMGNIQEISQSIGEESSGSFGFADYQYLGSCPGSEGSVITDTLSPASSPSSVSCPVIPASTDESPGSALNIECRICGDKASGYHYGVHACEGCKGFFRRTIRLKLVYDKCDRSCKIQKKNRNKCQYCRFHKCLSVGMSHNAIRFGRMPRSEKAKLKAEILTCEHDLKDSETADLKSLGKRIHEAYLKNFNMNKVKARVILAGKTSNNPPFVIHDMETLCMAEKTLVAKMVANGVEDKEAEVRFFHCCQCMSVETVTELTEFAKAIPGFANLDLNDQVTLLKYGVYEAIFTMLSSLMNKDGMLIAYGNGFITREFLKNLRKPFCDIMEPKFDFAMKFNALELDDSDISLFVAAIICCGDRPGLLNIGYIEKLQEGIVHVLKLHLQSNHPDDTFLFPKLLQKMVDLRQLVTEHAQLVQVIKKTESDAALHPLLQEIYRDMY
Procedure: as §2
The comparison was performed by incubating 0.2 ml cells for 3 days in the wells of a microtiter plate at an initial cell concentration of 5×10^5 cells per ml in the presence of increasing amounts of inducer and 50 uM coumarin.
as §3
The ACO-PPRE constructs were centrifuged and resuspended at a density of 2 million cells per milliliter in RPMI media with 9% horse serum. One hundred microliters of the cell suspension was distributed into a total of four rows, two rows being at the opposite end of a 96 well microtiter plate. One set was labeled as clofibrate and the other set was labeled as the blank. Clofibrate was then added at concentration of 3 mM, 2 mM, 1 mM, 0.5 mM & 0 mM to the appropriate wells. Stock concentration of clofibrate was 50 mM in 75 mM NaOH. One hundred microliters of media containing 100 micromolar coumarin was then added to the clofibrate containing wells. The negative control contained cell suspension and 100 uM coumarin only. The plates were placed at […] for three days. In a distinct set of wells, one hundred microliters of hydroxy-coumarin standard was placed in two rows The concentrations are in units of pmoles and the values are: 1250, 625, 313, 156, 78, 39, 19.5 & 0. At the end of the three day incubation period, one hundred microliters of media containing 100 uM coumarin was added to the wells labeled as blank. Next 0.1M Tris pH 9.0 was distributed to the contents of each well. Fluorescence was analyzed with a cytofluor 2350 (Millipore) with excitation at 360 nm and emission at 460 nm (both filters with a 40 nm bandwidth). The net fluorence was calculated by subtracting the fluorescence of the blank wells from the fluorescence of the test wells for each clofibrate concentration. Conversion to pmole product per well was accomplished by comparison to the fluorescence of the standards. The responsiveness of the different constructs to clofibrate induction was measured immediately after viable, hygromycin resistant cells were obtained and periodically thereafter in order to evaluate the stability of the system. The data were graphed as the fold induction relative to the without clofibrate control incubation. This is a measure of the responsiveness of the system and corrects for differences in the negative control values for the different reporter constructs.

In the case of CCOC(=O)C(C)(C)Oc1ccc(Cl)cc1 [clofibrate], the “7-hydroxycoumarin production by cell lines containing the chimeras” value [1] is reported as “very small but detectable, concentration-dependent increase”, the fold induction at 1100 µM (hPPAR; read-out: Coumarin Hydroxylase Activity Induced (Fold), cell line T248 (HSVtk 3'-5' hPPAR; HSVtk-OCT, JCO, HSVtkL15)) is reported as 0.9 and the fold induction at 1100 µM (hPPAR; read-out: Coumarin Hydroxylase Activity Induced (Fold), cell line T249 (HSVtk 3'-5' hPPAR; HSVtk-OCT, JCO, HSVtkL15)) is reported as 1.1. For the same compound, the “difference in toxicity among cell lines” value (AHH-1 TK± cells) was “No differences in toxicity”, the “toxicity to the cells” value (AHH-1 TK± cells) was “toxic” and the “7-hydroxycoumarin production in control cells” value [2] was “No increase”. For the same compound, the “clofibrate induction of CH activity in cells containing the reporter alone” value [2] was “did not respond”, the “induction of 7-hydroxycoumarin production in the absence of the PPARα” value [2] was “no induction” and the fold induction at 1100 µM ([2]; read-out: Coumarin Hydroxylase Activity Induced (Fold), cell line T192 (no receptor; HSVtk-OCT, ACO, HSVtkL15)) was 0.8. For the same compound, the fold induction at 1100 µM ([2]; read-out: Coumarin Hydroxylase Activity Induced (Fold), cell line T192/T144 (no receptor; HSVtk-OCT, ACO, MMTV-LTR3)) was 0.7, the fold induction at 1100 µM ([2]; read-out: Coumarin Hydroxylase Activity Induced (Fold), cell line T245 (no receptor; HSVtk-OCT, JCO, HSVtkL15)) was 0.9 and the “CYP2A6-catalyzed coumarin 7-hydroxylase activity upon treatment of the cells” value (mouse PPARα) was “concentration dependent increase”. The “clofibrate-induced activity relative to background levels” value (mouse PPARα) was 3 to 10 times, the “fold induction after growth in exponential cell culture” value (mouse PPARα) was “about 2 fold” and the “fold induction, initial” value (mouse PPARα) was 4 to 6 fold. The “increase in CYP2A6 expression after exposure to clofibrate” value (mouse PPARα) was “greater than 10 fold”, the “potency rank on a molar basis” value (mouse PPARα) was “then clofibrate” and the “ranking of chemicals of known ability to induce peroxisome proliferation” value (mouse PPARα) was “correctly rank”. For the same compound, the “reporter gene expression, concentration response” value (mouse PPARα) was “concentration-dependent increases”, the signal-to-noise ratio (mouse PPARα) was “about 10” and the fold induction at 1100 µM (mouse PPARα; read-out: Coumarin Hydroxylase Activity Induced (Fold), cell line 7.10/T225, receptor orientation 3'-5' (HSVtk mPPAR; SV40, JCO, HSVtk#7)) was 0.9. It also gave a fold induction at 1100 µM (mouse PPARα; read-out: Coumarin Hydroxylase Activity Induced (Fold), cell line 7.3/T225, receptor orientation 3'-5' (HSVtk mPPAR; SV40, JCO, HSVtk#7)) of 0.9, a fold induction at 1100 µM (mouse PPARα; read-out: Coumarin Hydroxylase Activity Induced (Fold), cell line 7.3/T225, receptor orientation 5'-3' (HSVtk mPPAR; SV40, JCO, HSVtk#7)) of 1.5 and a fold induction at 1100 µM (mouse PPARα; read-out: Coumarin Hydroxylase Activity Induced (Fold), cell line T194 (SV40 3'-5' mPPAR; HSVtk-OCT, ACO, HSVtkL15)) of 1.5. The fold induction at 1100 µM (mouse PPARα; read-out: Coumarin Hydroxylase Activity Induced (Fold), cell line T194/HSVtk#7 (SV40 3'-5' mPPAR; SV40, ACO, HSVtk#7)) was 3.3, the fold induction at 1100 µM (mouse PPARα; read-out: Coumarin Hydroxylase Activity Induced (Fold), cell line T194/T144 (SV40 3'-5' mPPAR; SV40, ACO, MMTV-LTR3)) was 1.2 and the fold induction at 1100 µM (mouse PPARα; read-out: Coumarin Hydroxylase Activity Induced (Fold), cell line T247 (HSVtk 3'-5' mPPAR; HSVtk-OCT, JCO, HSVtkL15)) was 1.2. For the same compound, the maximal fold induction (mouse PPARα; high copy number reporter, vector T144/194, clone 6-1, sequential independent determinations) was 1.57, the maximal fold induction (mouse PPARα; high copy number reporter, vector T144/194, clone 6-3, sequential independent determinations) was 1.17 and the maximal fold induction (mouse PPARα; high copy number reporter, vector T144/194, clone 6-4) was 1.36. For the same compound, the maximal fold induction (mouse PPARα; high copy number reporter, vector T194EH#7, clone 8-1) was 1.04, the maximal fold induction (mouse PPARα; high copy number reporter, vector T194EH#7, clone 8-5, sequential independent determinations) was 1.27 and the maximal fold induction (mouse PPARα; high copy number reporter, vector T194EH#7, clone 8-11) was 1.15. It also gave a maximal fold induction (mouse PPARα; high copy number reporter, vector T194EH#7, clone 8-12) of 1.21, a maximal fold induction (mouse PPARα; high copy number reporter, vector T194EH#7, clone 8-14) of 1.15 and a maximal fold induction (mouse PPARα; vector T194EH#7, clone 8-6 (probably no functional high copy reporter)) of 3.44. The maximal fold induction (mouse PPARα; vector T194EH#7, clone 8-16 (probably no functional high copy reporter)) was 3.73.
